In patent US20250134870A1, “PATHWAY MODULATOR, PHARMACEUTICAL COMPOSITION HAVING SAME, USE THEREOF, AND THERAPEUTIC METHOD USING SAME” (Jiangsu Yahong Meditech Co., Ltd., priority 2021, published 2025):
Read-outs that look alike come from different tables or passages of the source.

Experiments:
[1] = test system: 2,4-dinitrobenzenesulfonic acid (DNBS)-induced colitis; experiment: DNBS-induced colitis in rats: macroscopic evaluation of colon on Day 7 (colon length, weight, ulcer area, CW/CL, CW/BW, CW/CL/BW); format: in vivo, Wistar rats; settings: for inhibition at 3 mg/kg / inhibition at 10 mg/kg / inhibition at 30 mg/kg: Rattus norvegicus, 168 h; for BW / CW/BW ×100 / Ulcer area / Ulcer length / Ulcer width: mean
Protocol: (3) Colon observation: after the end of the experiment, all animals were anesthetized with Zoletil (intravenous injection, 25 mg/kg) and the abdominal cavity was opened. Blood was collected from the abdominal aorta with EDTA anticoagulation (centrifugation conditions: 4° C., 2,000 g, 10 min). After the animals were sacrificed by bloodletting, the colon (from the cecum to the anus) was dissected and the colon length was measured immediately. The colon was longitudinally incised and rinsed until clean. Then the colon weight and ulcer area were recorded, and the colon was photographed as a whole and divided into three parts, among which two parts were stored at −80° C. after flash freezing with liquid nitrogen for MPO and cytokine detection, and the other part of colon was fixed with 10% neutral buffered formalin. If the ulcer was irregularly shaped, it could be considered as rectangular, and then its length and width were measured for ulcer area assessment. Ulcer area (cm^2)=ulcer length (cm)×ulcer width (cm).

[2] = test system: IRBP R16-induced experimental autoimmune uveoretinitis (EAU); experiment: Bovine IRBP R16-induced experimental autoimmune uveoretinitis (EAU): clinical score, AUC, incidence (Example 6); format: in vivo, Lewis rats
Protocol: On Day-1 (i.e., the day before immunization, hereinafter), 60 rats were randomly divided into 6 groups (n=10) based on body weight (see Table 18). On Day 0, rats in Groups 2 to 6 were anesthetized with isoflurane, followed by subcutaneous injection of a total of […] of emulsion resulting from IRBP R16 and CFA emulsified at a 1:1 v/v ratio, on both thighs (50 μL at each site) and tail head (100 μL), respectively.
From Day 0 after immunization, the eyes of rats were checked daily with a flashlight by gently opening the upper and lower eyelids of the test rats, and the incidence of disease was recorded. Clinical symptoms were scored in a blind manner from the onset of disease to the end of the study according to the criteria listed in Table 17.
Dosing started from Day 0 accurately according to the animal body weight for a total of 16 days.
The results were expressed as “mean±standard error”. Graphpad Prism or SPSS was used for statistical analysis, and p<0.05 was considered statistically significant.

[3] = G4 Test group 1#, 3 mg/kg PO QD × 7
[4] = G5 Test group 2#, 10 mg/kg PO QD × 7
[5] = G6 Test group 3#, 30 mg/kg PO QD × 7

NCc1c[nH]c(=S)n1[C@H]1CCc2c(F)cc(F)cc2C1 [Nepicastat]
inhibition at 3 mg/kg ([1]; 3 mg/kg (Test group 1#), read-out: inhibition rate of CW/BW): 40.2% | inhibition at 3 mg/kg ([1]; 3 mg/kg (Test group 1#), read-out: inhibition rate of CW/CL): 30.8% | inhibition at 3 mg/kg ([1]; 3 mg/kg (Test group 1#), read-out: inhibition rate of CW/CL/BW): 33% | inhibition at 10 mg/kg ([1]; 10 mg/kg (Test group 2#), read-out: inhibition rate of CW/BW): 47.1% | inhibition at 10 mg/kg ([1]; 10 mg/kg (Test group 2#), read-out: inhibition rate of CW/CL): 43.8% | inhibition at 10 mg/kg ([1]; 10 mg/kg (Test group 2#), read-out: inhibition rate of CW/CL/BW): 45% | inhibition at 30 mg/kg ([1]; 30 mg/kg (Test group 3#), read-out: inhibition rate of CW/BW): 39.9% | inhibition at 30 mg/kg ([1]; 30 mg/kg (Test group 3#), read-out: inhibition rate of CW/CL): 26.7% | inhibition at 30 mg/kg ([1]; 30 mg/kg (Test group 3#), read-out: inhibition rate of CW/CL/BW): 27.1% | inhibition at 3 mg/kg ([1]; G4 Test group 1#, 3 mg/kg PO QD × 7, read-out: IR1 (inhibition rate 1, CW/CL/BW)): 33% | inhibition at 3 mg/kg ([1]; G4 Test group 1#, 3 mg/kg PO QD × 7, read-out: IR2 (inhibition rate 2, CW/BW)): 40.2% | inhibition at 3 mg/kg ([1]; G4 Test group 1#, 3 mg/kg PO QD × 7, read-out: IR3 (inhibition rate 3, CW/CL)): 30.8% | inhibition at 10 mg/kg ([1]; G5 Test group 2#, 10 mg/kg PO QD × 7, read-out: IR1 (inhibition rate 1, CW/CL/BW)): 45% | inhibition at 10 mg/kg ([1]; G5 Test group 2#, 10 mg/kg PO QD × 7, read-out: IR2 (inhibition rate 2, CW/BW)): 47.1% | inhibition at 10 mg/kg ([1]; G5 Test group 2#, 10 mg/kg PO QD × 7, read-out: IR3 (inhibition rate 3, CW/CL)): 43.8% | inhibition at 30 mg/kg ([1]; G6 Test group 3#, 30 mg/kg PO QD × 7, read-out: IR1 (inhibition rate 1, CW/CL/BW)): 27.1% | inhibition at 30 mg/kg ([1]; G6 Test group 3#, 30 mg/kg PO QD × 7, read-out: IR2 (inhibition rate 2, CW/BW)): 39.9% | inhibition at 30 mg/kg ([1]; G6 Test group 3#, 30 mg/kg PO QD × 7, read-out: IR3 (inhibition rate 3, CW/CL)): 26.7% | BW [1, 3]: 168.65 g | CW/BW ×100 [1, 3]: 1.05 | Ulcer area [1, 3]: 1.36 cm^2 | Ulcer length [1, 3]: 1.08 cm | Ulcer width [1, 3]: 0.87 cm | BW [1, 4]: 169.54 g | CW/BW ×100 [1, 4]: 1.01 | Ulcer area [1, 4]: 1.17 cm^2 | Ulcer length [1, 4]: 0.97 cm | Ulcer width [1, 4]: 0.73 cm | BW [1, 5]: 164.62 g | CW/BW ×100 [1, 5]: 1.05 | Ulcer area [1, 5]: 1.35 cm^2 | Ulcer length [1, 5]: 1.09 cm | Ulcer width [1, 5]: 0.95 cm | Area under the curve (AUC) of clinical score ([2]; 25 mg/kg PO QD × 16 days): 45.30 | Area under the curve (AUC) of clinical score ([2]; 50 mg/kg PO QD × 16 days): 39.65 | Area under the curve (AUC) of clinical score ([2]; 100 mg/kg PO QD × 16 days): 37.65 | symptoms of uveitis, EAU clinical score and clinical score AUC ([2]; 25, 50 and 100 mg/kg PO QD × 16 days): moderately ameliorate the symptoms of uveitis and reduced the EAU clinical score and clinical score AUC, but this effect was not statistically significant | Incidence rate (%) ([2]; Day 0, 25 mg/kg PO QD): 0% | Incidence rate (%) ([2]; Day 0, 50 mg/kg PO QD): 0% | Incidence rate (%) ([2]; Day 0, 100 mg/kg PO QD): 0% | Incidence rate (%) ([2]; Day 1, 25 mg/kg PO QD): 0% | Incidence rate (%) ([2]; Day 1, 50 mg/kg PO QD): 0% | Incidence rate (%) ([2]; Day 1, 100 mg/kg PO QD): 0% | Incidence rate (%) ([2]; Day 2, 25 mg/kg PO QD): 0% | Incidence rate (%) ([2]; Day 2, 50 mg/kg PO QD): 0% | Incidence rate (%) ([2]; Day 2, 100 mg/kg PO QD): 0% | Incidence rate (%) ([2]; Day 3, 25 mg/kg PO QD): 0% | Incidence rate (%) ([2]; Day 3, 50 mg/kg PO QD): 0% | Incidence rate (%) ([2]; Day 3, 100 mg/kg PO QD): 0% | Incidence rate (%) ([2]; Day 4, 25 mg/kg PO QD): 0% | Incidence rate (%) ([2]; Day 4, 50 mg/kg PO QD): 0% | Incidence rate (%) ([2]; Day 4, 100 mg/kg PO QD): 0% | Incidence rate (%) ([2]; Day 5, 25 mg/kg PO QD): 70% | Incidence rate (%) ([2]; Day 5, 50 mg/kg PO QD): 70% | Incidence rate (%) ([2]; Day 5, 100 mg/kg PO QD): 80% | Incidence rate (%) ([2]; Day 6, 25 mg/kg PO QD): 100% | Incidence rate (%) ([2]; Day 6, 50 mg/kg PO QD): 100% | Incidence rate (%) ([2]; Day 6, 100 mg/kg PO QD): 80% | Incidence rate (%) ([2]; Day 7, 25 mg/kg PO QD): 70% | Incidence rate (%) ([2]; Day 7, 50 mg/kg PO QD): 100% | Incidence rate (%) ([2]; Day 7, 100 mg/kg PO QD): 50% | Incidence rate (%) ([2]; Day 8, 25 mg/kg PO QD): 100% | Incidence rate (%) ([2]; Day 8, 50 mg/kg PO QD): 100% | Incidence rate (%) ([2]; Day 8, 100 mg/kg PO QD): 100% | Incidence rate (%) ([2]; Day 9, 25 mg/kg PO QD): 100% | Incidence rate (%) ([2]; Day 9, 50 mg/kg PO QD): 100% | Incidence rate (%) ([2]; Day 9, 100 mg/kg PO QD): 100% | Incidence rate (%) ([2]; Day 10, 25 mg/kg PO QD): 100% | Incidence rate (%) ([2]; Day 10, 50 mg/kg PO QD): 100% | Incidence rate (%) ([2]; Day 10, 100 mg/kg PO QD): 100% | Incidence rate (%) ([2]; Day 11, 25 mg/kg PO QD): 100% | Incidence rate (%) ([2]; Day 11, 50 mg/kg PO QD): 100% | Incidence rate (%) ([2]; Day 11, 100 mg/kg PO QD): 100% | Incidence rate (%) ([2]; Day 12, 25 mg/kg PO QD): 100% | Incidence rate (%) ([2]; Day 12, 50 mg/kg PO QD): 100% | Incidence rate (%) ([2]; Day 12, 100 mg/kg PO QD): 100% | Incidence rate (%) ([2]; Day 13, 25 mg/kg PO QD): 100% | Incidence rate (%) ([2]; Day 13, 50 mg/kg PO QD): 100% | Incidence rate (%) ([2]; Day 13, 100 mg/kg PO QD): 100% | Incidence rate (%) ([2]; Day 14, 25 mg/kg PO QD): 100% | Incidence rate (%) ([2]; Day 14, 50 mg/kg PO QD): 100% | Incidence rate (%) ([2]; Day 14, 100 mg/kg PO QD): 100% | Incidence rate (%) ([2]; Day 15, 25 mg/kg PO QD): 100% | Incidence rate (%) ([2]; Day 15, 50 mg/kg PO QD): 100% | Incidence rate (%) ([2]; Day 15, 100 mg/kg PO QD): 100% | Incidence rate (%) ([2]; Day 16, 25 mg/kg PO QD): 100% | Incidence rate (%) ([2]; Day 16, 50 mg/kg PO QD): 100% | Incidence rate (%) ([2]; Day 16, 100 mg/kg PO QD): 100% | Incidence rate (%) ([2]; Day −1, 25 mg/kg PO QD): 0% | Incidence rate (%) ([2]; Day −1, 50 mg/kg PO QD): 0% | Incidence rate (%) ([2]; Day −1, 100 mg/kg PO QD): 0% | inhibition at 25 mg/kg ([2]; Rattus norvegicus, 384 h, 25 mg/kg PO QD × 16 days, vs model control, read-out: Inhibition rate of clinical score AUC): 8.67% | inhibition at 50 mg/kg ([2]; Rattus norvegicus, 384 h, 50 mg/kg PO QD × 16 days, vs model control, read-out: Inhibition rate of clinical score AUC): 20.1% | inhibition at 100 mg/kg ([2]; Rattus norvegicus, 384 h, 100 mg/kg PO QD × 16 days, vs model control, read-out: Inhibition rate of clinical score AUC): 24.1%
